Laboratory results reported in patent US20250032430A1, “USES OF RHODOQUINONE FOR THE TREATMENT OF DISEASE” (Whitehead Institute for Biomedical Research, priority 2021, published 2025).

Legend:
mammalian cells = test: Resistance of cells to hypoxia; type: cell-based
143B cells [1] = test: 14C-palmitate degradation radioactivity assay (fatty acid oxidation); type: cell-based, human; details: WT (UQ-containing) versus RquA (RQ-containing) 143B cells
Source text: Radioactivity assay to monitor 14C-palmitate degradation in WT (UQ-containing) and RquA (RQ-containing) 143B cells.

143B cells [2] = test: Cell proliferation; type: cell-based, human; details: antimycin, media containing high pyruvate and aspartate; versus wild-type cells
Method: Proliferation: 25,000 cells were seeded in 6-well dishes and counted on day 1 and day 5 on a Beckman Coulter Counter. Doubling times were calculated using the following equation: […]

[3] = tested on: mitochondrial membrane potential; test: Mitochondrial membrane potential (TMRE dye); type: cell-based, human
Method: Live Cell Imaging: 143B cells were seeded at 50% density in 6-well dishes 24 hours prior to the experiment. Cells were pre-incubated with 500 nM TMRE dye for 30 minutes and then imaging on a Nikon TE2000 inverted microscope was started. Images were taken at 1 minute intervals over the course of an hour in the mCherry channel while the plate was incubated in a chamber maintaining a temperature of 37° C. and 5% CO2.
Flow Cytometry: Cells were seeded 24 hours prior to the experiment at 50% density. On the day of the experiment, the cells were treated for the designated time with inhibitors. 30 minutes prior to the end of the incubation, 500 nM TMRE dye was added to the wells. Following incubation cells were washed, trypsinized, and filtered through a cell strainer prior to sorting. Fluorescence-activated cell sorting was performed on a LSR-II sorter, in which the fluorescence intensity of individual cells was quantified in the PE channel. Data were analyzed using FlowJo software (TreeStar).

143B cells [4] = test: Polar metabolite profiling (succinate level); type: cell-based, human; details: 500 nM antimycin 8 hours
Method: Isolation of metabolites from adherent cells: To isolate metabolites, media was removed, cells were washed 2 times with ice cold 1×PBS, and wells were covered in LC-MS grade 80:20 Methanol:Water (ThermoFisher). Plates were scraped on dry ice and lysates were collected into eppendorf tubes. Lysates were vortexed for 10 minutes at 4° C. and centrifuged at 16,000×g for 10 minutes at 4° C. Supernatants were immediately dried down in a Refrigerated CentriVap Benchtop Vacuum Concentrator connected to a CentriVap-105 Cold Trap (Labconco). Dried pellets were stored at −80° C. until they were run on LC-MS.
Liquid Chromatography and Mass Spectrometry (polar): A QExactive bench top orbitrap mass spectrometer equipped with an Ion Max source and a HESI II probe coupled to a Dionex UltiMate 3000 HPLC system (Thermo Fisher Scientific) was used to perform all LC-MS experiments. The instrument underwent mass calibration using the standard calibration mixture every 7 days. 2 μL of re-suspended polar metabolite samples were injected onto a SeQuant ZIC-pHILIC 5 μm 150×2.1 mm analytical column equipped with a 2.1×20 mm guard column (MilliporeSigma). The column oven was held at 25° C. and the autosampler tray was held at 4° C. Buffer A was comprised of 20 mM ammonium carbonate, 0.1% ammonium hydroxide. Buffer B was comprised of 100% acetonitrile. […]

MT-DNA copy number = test: MT-DNA quantification; type: cell-based, human; details: SDHA and SDHB knockout cells
Method: MT-DNA Quantification: Cells were pelleted, washed 1× in PBS, and then lysed in buffer (25 mM NaOH, 0.2 mM EDTA) for 15 minutes at 95° C. Lysis was neutralized with buffer (40 mM Tris-HCl) and centrifuged at 16,000×g for 10 minutes at 4° C. Supernatant containing MT-DNA was quantified on a CFX96 Real-Time System Thermal Cycler (Bio Rad). Primers amplifying the MT-DNA marker D-Loop (Forward Primer-[…] (SEQ ID NO: 5) Reverse Primer—[…]) (SEQ ID NO: 6) and the nuclear DNA marker B-Globin (Forward Primer-[…] (SEQ ID NO: 7) Reverse Primer—[…]) (SEQ ID NO: 8) were used and the relative MT-DNA to nuclear DNA was quantified in each sample [4].

143B cells [5] = test: Ubiquinone and ubiquinol measurement by LC-MS in mitochondria; type: cell-based, human; details: antimycin-treated SDHB knockout cells versus antimycin-treated wild-type cells
Method: Ubiquinone and Ubiquinol measurements: Ubiquinone and Ubiquinol were isolated from mitochondria purified by differential centrifugation as described above. Extraction and mass spectrometry protocols were performed with slight modifications to a previously described protocol. Briefly, mitochondria isolated from 25 million cells or approximately 100 mg mouse tissue were resuspended in 500 μL of ethanol and vortexed for 10 minutes at 4° C. Then, 1 mL of hexane was added and the samples were vortexed for an additional 10 minutes at 4° C. Samples were centrifuged at 16,000×g for 10 minutes at 4° C., creating two layers—the top hexane layer and bottom ethanol layer. The top (hexane) fraction was moved into a new tube and dried down. Immediately prior to LC-MS, samples were resuspended in 50 μL of 80:20 ethanol:hexane and loaded into a 4° C. autosampler. 5 μL of samples were injected onto a Luna 3 μm PFP(2) 100 Å, LC Column 100×2 mm. The column oven was held at 25° C. and the autosampler tray was held at 4° C. Buffer A contained water with 0.1% formic acid and Buffer B contained acetonitrile with 0.1% formic acid. […]

Substance	resistance to hypoxia (mammalian cells)	fatty acid oxidation (14C-palmitate degradation) (143B cells [1])	proliferation of SDHB-null cells (143B cells [2])	mitochondrial membrane potential (ΔΨMito) ([3]; SDHB-null cells versus wild-type cells, 30 minutes of antimycin treatment)	mitochondrial membrane potential (ΔΨMito) ([3]; wild-type cells, time course after antimycin)	succinate level (143B cells [4])	MT-DNA copy number (MT-DNA copy number)	levels of UQH2 and ratio of UQH2:UQ (143B cells [5])
rhodoquinone	renders mammalian cells resistant to hypoxia	drives lower fatty acid oxidation						
antimycin			less than wild-type cells treated with antimycin	substantially more depolarized	initial reduction in the ΔΨ^Mito, which was restored to pre-treatment levels	increase	did not alter	greater
